From patent publication US11421001B2, “Template-fixed peptidomimetics” (UNIVERSITAET ZUERICH, priority 2007, dated 2022)
pIC50: −log10 of the molar value.

Tests used:
[1] = target: T1, human CXCR4 (Homo sapiens, UniProt P61073); assay: Ca2+ assay: CXCR4-antagonizing activity; type: cell-based
T1 construct: expressed in transfected cells; host or cells: mouse pre-B cell line 300-19
Method: 2.2. Ca^2+− Assay: CXCR4-Antagonizing Activity of the Peptides.
Increases in intracellular calcium were monitored using a Flexstation 384 (Molecular Devices, Sunnyvale, Calif.) to assay the peptides for CXCR4 antagonism in a mouse pre-B cell line 300-19 stably transfected with human CXCR4 [see references 1, 2 and 3, below]. The cells were batch loaded with the Calcium 3 Assay kit (Molecular Devices) in assay buffer (Hanks Balanced salt solution, HBSS, 20 mM HEPES, pH 7.4, 0.1% BSA) for 1 h at room temperature and then 200,000 labeled cells were dispensed into black 96 well assays plates (Costar No. 3603). A 20-fold concentrated solution of peptide in assay buffer was added to the cells and the whole plate was centrifuged to settle the cells to the bottom of the wells. Calcium mobilization induced by 10 nM stromal-derived factor-1 (SDF-1) was measured in the Flexstation 384 (excitation, 485 […]) for 90 seconds. A maximal change in fluorescence response above baseline was used to calculate antagonist activity. The data for dose response curves (antagonist concentration versus % maximum response) were fitted to a four parameter logistic equation using SoftmaxPro 4.6 (Molecular Devices), from which IC50% values were calculated.

[2] = Cytotoxicity assay (MTT reduction); type: cell-based; conditions: human, HELA cells (Acc57), peptides at 12.5, 25 and 50 μM, trend line, read-out: Cyto-toxicity LC50/GI50 Hela cells
Method: The cytotoxicity of the peptides to HELA cells (Acc57) and COS-7 cells (CRL-1651) was determined using the MTT reduction assay [see ref. 6 and 7, below]. Briefly the method was as follows: HELA cells and COS-7 cells were seeded at 7.0×10^3 and, respectively, 4.5×10^3 cells per well and grown in 96-well microtiter plates for 24 hours at 37° C. at 5% CO2. At this point, time zero (Tz) was determined by MTT reduction (see below). The supernatant of the remaining wells was discarded, and fresh medium and the peptides in serial dilutions of 12.5, 25 and 50 μM were pipetted into the wells. Each peptide concentration was assayed in triplicate. Incubation of the cells was continued for 48 hours at 37° C. at 5% CO2. Wells were then washed once with PBS and subsequently 100 μl MTT reagent (0.5 mg/mL in medium RPMI1640 and, respectively, DMEM) was added to the wells. This was incubated at 37° C. for 2 hours and subsequently the medium was aspirated and 100 μl isopropanol was added to each well. The absorbance at 595 nm of the solubilized product was measured (OD595peptide). For each concentration averages were calculated from triplicates. The percentage of growth was calculated as follows: (OD595peptide−OD595Tz−OD595Empty well)/(OD595Tz−OD595Empty well)×100% and was plotted for each peptide concentration. […]

[3] = test system: human red blood cells (hRBC); assay: Hemolysis; type: cell-based; conditions: 100 μM peptide, 20% v/v hRBC, 1 hour at 37° C.; percent hemolysis per method
Method: The peptides were tested for their hemolytic activity against human red blood cells (hRBC). Fresh hRBC were washed three times with phosphate buffered saline (PBS) by centrifugation for 10 min at 2000×g. Peptides at a concentration of 100 μM were incubated with 20% v/v hRBC for 1 hour at 37° C. The final erythrocyte concentration was approximately 0.9×10^9 cells per ml. A value of 0% resp. 100% cell lysis was determined by incubation of the hRBC in the presence of PBS alone and respectively 0.1% Triton X-100 in H2O. The samples were centrifuged and the supernatant was 20-fold diluted in PBS buffer and the optical density (OD) of the sample at […] was measured. The 100% lyses value (OD540H2O) gave an OD540 of approximately 1.3-1.8. Percent hemolysis was calculated as follows: (OD540peptide/OD540H2O)×100%.

[4] = Plasma stability, human plasma; type: in vitro ADME; conditions: read-out: Stability human Plasma t1/2
[5] = Plasma stability, rat plasma; type: in vitro ADME; conditions: read-out: Stability rat Plasma t1/2
[6] = Maximum tolerated dose in mice; type: in vivo, mouse; conditions: mouse, i.v.
Method: 3.1. Maximum Tolerated Dose in Mice
a) The compound of Example 1, dispersed in Water for Injection or 0.9% physiological saline), was administered, in the preliminary study, by i.v. injection at dose levels of 35, 50, 70, 85, 100, 150, 250 or 500 mg/kg to groups consisting of one male and one female mouse (Crl:CD1(ICR)). In addition, two groups comprising two male and two female mice received dose levels of 90 and 100 mg/kg, respectively, and the 50 mg/kg dose level was repeated in a group comprising one male and one female.
b) Maximum tolerated dose studies (MTD) carried out with the compound of Example 2 using CD1 mice (3 mice/group) and was performed using i.v, ip and sc. administration.

[7] = 14-day intravenous injection toxicity and toxicokinetic study in mice; type: in vivo, mouse
Method: 3.2 Repeated Toxicity Studies in Mice
The toxicity and toxicokinetics of the compound of Example 1 was investigated following daily i.v. injection in the mouse for at least 14 days. Groups of 12 male and 12 female Crl:CD1(ICR) mice received dose preparations containing control article (50 mM sodium dihydrogen orthophosphate buffer containing 0.9% w/v sodium chloride) or 8, 24, or 40 mg/kg/day POL6326 at a dose volume of 5 mL/kg. Satellite groups of 24 animals per sex per group were included at each dose level. Assessment of toxicity was based on mortality, clinical signs, body weights, food consumption, ophthalmic examinations, clinical and anatomic pathology, and toxicokinetic evaluations.

[8] = test system: hematopoietic progenitors (CFU-GM); assay: Stem cell mobilisation, mice model (CFU-GM); type: in vivo, mouse
Description: The aim of the study was to evaluate the ability of the compound of Example 1 and Example 2 to mobilize hematopoietic progenitors from mouse bone marrow to peripheral blood using in-vitro hematopoietic colony assays. In humans, accurate information about progenitor cell mobilization is provided by the colony forming unit granulocyte-monocyte (CFU-GM) assay or by determining the abundance of CD34(+) cells by FACS analysis (see ref. 10 below). In mice, CD34 is not a useful marker for stem cells; instead the CFU-GM is more commonly used (see ref. 11 below).
In order to assess the ability of the compounds of Example 1 and Example 2 to mobilize murine stem cells (CFU-GM) C3H/HeJ female mice (Jackson Laboratory) were injected s.c. with 5 mg/k, of the compounds of Example 1 and of Example 2 and as reference AMD3100 (Broxmeyer, et al, J Exp Med 201, 1307-1318), (currently undergoing Phase III clinical trials) for stem cell mobilisation. Peripheral blood samples from 5 animals per test group were collected at each time point and nucleated cell counts performed as standard assays.

[9] = test system: CD34(+) hematopoietic cells; assay: Stem cell mobilisation, monkey model (CD34(+) cells by FACS); type: in vivo, cynomolgus monkeys (Macaca fascicularis); conditions: cynomolgus monkeys, slow bolus i.v. injection
Method: An assessment of mobilization of peripheral-blood hematopoietic stem cells in cynomolgus monkeys (Macaca fascicularis) was performed. The compound of Example 1 was administered to 4 monkeys (2 male and 2 female) as a slow bolus i.v. injection over 2 minutes and CD34(+) cells were determined by FACS analysis. Toxicokinetic blood sampling was also performed.

[10] = mouse, 8, 24 or 40 mg/kg/day i.v.

T1 sequence (P61073 whole entry): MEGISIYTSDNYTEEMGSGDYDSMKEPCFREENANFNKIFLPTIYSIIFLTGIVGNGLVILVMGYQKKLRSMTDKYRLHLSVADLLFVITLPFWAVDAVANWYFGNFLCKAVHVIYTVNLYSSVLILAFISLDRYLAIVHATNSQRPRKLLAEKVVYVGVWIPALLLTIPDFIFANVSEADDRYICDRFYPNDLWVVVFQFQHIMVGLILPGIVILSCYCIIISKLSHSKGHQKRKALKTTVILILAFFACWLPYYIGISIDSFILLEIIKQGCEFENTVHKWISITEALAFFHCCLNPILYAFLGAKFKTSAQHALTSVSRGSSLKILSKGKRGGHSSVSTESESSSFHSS

SMILES	pIC50 [1]	CC50 at 48 h [2] [nM]	Hemo-lysis at 100 μM [3]	half-life at 10 µM [4] [h]	half-life at 10 µM [5] [h]	acute minimum lethal intravenous dose level [6]	NOAEL at 14 days ([7]; both sexes, Crl:CD1(ICR), in vivo, iv, mouse, daily i.v. dosing, 14 days, read-out: NOAEL level) [mg/kg/day]	white blood cell and absolute lymphocyte counts ([7]; females given 40 mg/kg/day)	clinical chemistry results [7, 10]	effect on body weight, body weight change, food consumption, ophthalmic observations [7, 10]	test article-related gross lesions [7, 10]	test article-related microscopic lesions [7, 10]	return of CFU-GM to baseline levels, time post administration ([8]; C3H/HeJ mice, 5 mg/kg s.c.) [h]	time of maximal effect on CFU-GM blood cell numbers ([8]; C3H/HeJ mice, 5 mg/kg s.c.) [min]	dose of peak level increase in release of CFU-GM (dose response) ([8]; mice, follow up dose response study) [mg/kg]	duration of mobilisation [9]	mobilization of CD34(+) hematopoietic cells [9]	time of peak level of mobilization [9]	effect on CFU-GM blood cell numbers / progenitors over time ([8]; C3H/HeJ mice, 5 mg/kg s.c., compared to control mice)
C[C@@H]1NC(=O)[C@H](Cc2c[nH]cn2)NC(=O)[C@H](Cc2ccc(O)cc2)NC(=O)[C@@H]2CCCN2C(=O)[C@H]2CCCN2C(=O)[C@H](CCCCN)NC(=O)[C@H](CCC(N)=O)NC(=O)[C@H](Cc2ccc(O)cc2)NC(=O)[C@@H]2CSSC[C@H](NC1=O)C(=O)N[C@@H](CO)C(=O)N[C@@H](C)C(=O)N1CCC[C@@H]1C(=O)N[C@@H](CCN)C(=O)N[C@@H](CCCNC(=N)N)C(=O)N[C@@H](Cc1ccc(O)cc1)C(=O)N2 [Example 1]	8.26	> 50000	0.6	> 4	> 4	exceed 90 mg/kg	40	mildly higher	unaffected	no notable effect	No test article-related gross lesions were recorded	No test article-related microscopic lesions were observed	6	120	5	transient	induced mobilization of CD34(+) hematopoietic cells	peak level at two hours	
c1cc(CN2CCCNCCNCCCNCC2)ccc1CN1CCCNCCNCCCNCC1 [AMD3100, reference compound]																			increase in the frequency and number of progenitors at 30 and 60 minutes
